Measurements reported in patent US10626092B2, “Polymorphic forms of 3-[(2-butyl-1-(2-diethylamino-ethyl)-1H-benzoimidazol-5-yl]-N-hydroxy-acrylamide and uses thereof” (MEI PHARMA, INC., priority 2016, dated 2020).
Where a name gives a salt, the structure may show the parent alone.

Assay: Physical stability under accelerated aging conditions (40° C./70% RH), physical form re-determined by HT-XRPD
Type: physicochemical
Procedure: Solids were analyzed for their physical stability under accelerated aging conditions (40° C./70% RH) for 48 hours. After the exposure, the physical form was determined again by HT-XRPD analysis. The physico-chemical characterization of the forms was done by TGMS analysis to determine the solvation state of the form and thermal events and by DSC analysis to confirm the thermal events observed in the SDTA signal of the TGA. (See Examples for details.)
Suspensions of 3-[2-butyl-1-(2-diethylamino-ethyl)-1H-benzoimidazol-5-yl]-N-hydroxy-acrylamide dihydrochloride monohydrate (Form 1) and 2.5 hydrate (Form 3) were prepared in 12 process relevant solvent systems. The suspensions were cycled between 5° C. and 50° C. followed by aging at 25° C. for 72 hours. […] Upon completion of the incubation time, the solids were collected, dried under ambient conditions and dried under deep vacuum before being analyzed by HT-XRPD. All the measured solids were exposed to accelerated ageing conditions (2 days at 40° C./70% RH) followed by re-analysis by HT-XRPD.
Long-term slurry conversion experiments were carried out by preparing suspensions of 3-[2-butyl-1-(2-diethylamino-ethyl)-1H-benzoimidazol-5-yl]-N-hydroxy-acrylamide dihydrochloride 2.5 hydrate (Form 3) and monohydrate (Form 1) in 12 different solvents and solvent mixtures. Approximately 30 mg of the specific form was dosed in a standard HPLC vial and aliquots of 100 μL of solvent until a suspension was formed. The suspensions were stirred for 2 weeks at room temperature and for 1 week at 50° C. The solids were isolated from the mother liquor and analyzed by HT-XRPD after mild drying under ambient conditions (ambient) and after thorough drying under vacuum (vacuum). All the solids were exposed to accelerated ageing conditions (2 days at 40° C./70% RH) and re-analyzed by HT-XRPD.
The competitive slurry experiments were performed in ethanol/water mixtures and methanol/water mixtures within a water activity range of 0-0.2. Approximately 50 mg of each pracinostat dihydrochloride solid form 2.5 hydrate and monohydrate were solid dosed in 1.8 mL HPLC vials. Aliquots of 100 μL of the different water mixtures were added until about half of the amount of solid was in solution. Subsequently, the vials were stirred for one week at 5° C., 21° C. and 50° C. Upon completion of the equilibration time, the solids were separated from the liquids by centrifugation. The solids were dried under ambient conditions (ambient) and dried under vacuum (vacuum) before HT-XRPD analysis. All solid samples were exposed to accelerated gaining conditions (40° C. and 70% RH) for two days (AAC). The water content in the liquid phase was determined Karl Fischer analysis.

solid form after accelerated aging conditions (2 days at 40° C./70% RH): converted to the 2.5 hydrate Form 3
Stability (physical stability under accelerated aging conditions (40° C./70% RH) for 48 hours, dihydrochloride monohydrate): Unstable
Structure (SMILES): CCCCc1nc2cc(/C=C/C(=O)NO)ccc2n1CCN(CC)CC [Form 1, 3-[2-butyl-1-(2-diethylamino-ethyl)-1H-benzoimidazol-5-yl]-N-hydroxy-acrylamide dihydrochloride monohydrate]
